Measurements taken from PMC11769049, “Phytomedicine Potential of Oroxylum indicum Root and Its Constituents: Targeting Alzheimer’s Disease” (Plants, 2025).

Key:
[1] = molecular target: T1, Electric eel-type VI-S AChE (Electrophorus electricus, UniProt O42275); test: AChE inhibition, modified Ellman's method; type: biochemical
T1 construct: purchased
Procedure: The anti-acetylcholinesterase activity of the extract of O. indicum root and its three constituent compounds was evaluated using a modified Ellman’s method. A microplate-based assay was conducted in triplicate, comprising (i) 25 µL of 1 mM acetylthiocholine iodide, (ii) 50 µL of 0.1 M phosphate buffer (PBS), (iii) 25 µL of the sample, and (iv) 125 µL of 1 mM dithiobisnitrobenzoic acid. Electric eel-type VI-S AChE (0.2 Units/mL) was added. The control group lacked both the sample and enzyme. […] Tacrine served as a reference standard. Enzymatic activity and percent inhibition were assessed. The following equation was used to determine inhibitory activity:Percentage inhibition = [(AE − As)/(AE − AC)] × 100 where AE, AC, and As represent the enzymatic activities of the enzyme, control, and sample, respectively. The AChE inhibitory activity of the samples was expressed as the half-maximal inhibitory concentration (IC50).

Bax = test: Western blot of Bax in H2O2-exposed SH-SY5Y cells; type: cell-based, Human; details: 250 μM H2O2, pretreatment with extract (1, 3, 10 µg/mL) or baicalein (1, 3, 10 µM)
Procedure: (§1) Neuronal cells were pretreated with the extract (1, 3, and 10 µg/mL) or baicalein (1, 3, and 10 µM) for 30 min, followed by induction of oxidative stress with hydrogen peroxide (H2O2). […] NAC (100 µg/mL) was used for the standard substance. For the experiment, SH-SY5Y cells (1 × 10^5 cells/well) were seeded onto a 6-well plate and cultured for 2 days. […] After washing unabsorbed chemicals, the cells were exposed to 250 μM H2O2 for 5 min. Treated cells were lysed with an ice-cold lysis solution. The supernatant was obtained after centrifuging the lysate at 13,500 rpm for 10 min at 4 °C. The Bradford test was used to determine the total protein content. Proteins were separated on a polyvinylidene difluoride membrane using SDS-PAGE. After blocking with BlockAce, the membrane was probed with primary antibodies against BAX, cleaved caspase-3, pTau, and BACE1. Secondary antibodies coupled with horseradish peroxidase were used for detection, followed by enhanced chemiluminescence.

[2] = system: phosphorylated tau protein; test: Western blot of phosphorylated tau in H2O2-exposed SH-SY5Y cells; type: cell-based, Human; details: 250 μM H2O2, pretreatment with extract (1, 3, 10 µg/mL) or baicalein (1, 3, 10 µM)
Procedure: as §1

[3] = DPPH radical scavenging method; details: for IC50: read-out: IC50 DPPH, mean ± SD (n = 3)
Procedure: After 30 min incubation period, the absorbance at 520 nm was measured using a microplate reader. The DPPH radical scavenging ability was calculated according to the following equation:Percentage inhibition = [(ADPPH − Asample)/(ADPPH − Acontrol)] × 100 where ADPPH, Asample, and Acontrol are the absorbance values of DPPH solution, sample, and control, respectively.

BACE1 = test: Western blot of BACE1 in H2O2-exposed SH-SY5Y cells; type: cell-based, Human; details: 250 μM H2O2, pretreatment with extract (1, 3, 10 µg/mL) or baicalein (1, 3, 10 µM)
Procedure: as §1

cleaved caspase-3 = test: Western blot of cleaved caspase-3 in H2O2-exposed SH-SY5Y cells; type: cell-based, Human; details: 250 μM H2O2, pretreatment with extract (1, 3, 10 µg/mL) or baicalein (1, 3, 10 µM)
Procedure: as §1

Aβ1–42 = Aβ1–42 (Homo sapiens, UniProt P05067); test: Aβ1–42 aggregation inhibition, thioflavin-T (ThT) fluorescence assay
Sequence of Aβ1–42 (P05067 672-713 limits assumed): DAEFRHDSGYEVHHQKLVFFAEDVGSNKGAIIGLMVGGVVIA
Procedure: The aggregation of Aβ1–42 was monitored using a thioflavin-T (ThT) fluorescence assay [58]. […] Following a 48 h incubation period, the mixtures were treated with 175 µL of 5 µM ThT solution prepared in a glycine/NaOH buffer at pH 8.5.

T1 sequence (O42275 24-633): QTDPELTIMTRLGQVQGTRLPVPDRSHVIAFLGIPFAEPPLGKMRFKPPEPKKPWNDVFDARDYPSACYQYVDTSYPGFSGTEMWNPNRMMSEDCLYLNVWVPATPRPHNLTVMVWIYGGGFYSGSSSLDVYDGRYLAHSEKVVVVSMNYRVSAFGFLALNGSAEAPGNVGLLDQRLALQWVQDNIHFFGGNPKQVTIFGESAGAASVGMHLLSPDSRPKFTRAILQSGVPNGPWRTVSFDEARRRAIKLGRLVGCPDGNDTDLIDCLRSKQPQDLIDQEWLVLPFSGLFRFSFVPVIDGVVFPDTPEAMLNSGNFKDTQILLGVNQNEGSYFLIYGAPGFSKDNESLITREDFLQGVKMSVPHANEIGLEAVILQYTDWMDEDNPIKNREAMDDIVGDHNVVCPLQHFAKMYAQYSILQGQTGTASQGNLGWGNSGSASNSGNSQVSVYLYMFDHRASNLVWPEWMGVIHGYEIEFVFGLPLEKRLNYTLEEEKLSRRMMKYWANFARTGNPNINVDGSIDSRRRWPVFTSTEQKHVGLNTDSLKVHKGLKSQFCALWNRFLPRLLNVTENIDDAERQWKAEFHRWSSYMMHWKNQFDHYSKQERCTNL

In the case of O=c1cc(-c2ccccc2)oc2cc(O)c(O)c(O)c12 [Baicalein], the IC50 [1] is reported as 159 ± 1.15 µM, the “expression of pro-apoptotic protein Bax” value (Bax) is reported as “significantly downregulated” and the “levels of phosphorylated tau protein” value [2] is reported as “significantly reduced”. For the same compound, the IC50 [3] was 19.08 ± 0.17 µM, the “BACE1 expression (H2O2-induced increase)” value (BACE1) was “effectively mitigated this increase” and the “expression of cleaved caspase-3” value (cleaved caspase-3) was “significantly downregulated”.
Work on O=c1cc(-c2ccccc2)oc2cc(O)cc(O)c12 [Chrysin] yielded an IC50 (Aβ1–42) of 5.86 ± 0.16 µM, an IC50 [1] of 45.9 ± 1.32 µM and an IC50 [3] of 63.3 ± 0.89 µM.
Compound COc1c(O)cc2oc(-c3ccccc3)cc(=O)c2c1O [Oroxylin A] has an IC50 (Aβ1–42) of 8.19 ± 0.28 µM, an IC50 [1] of 86.9 ± 1.85 µM and an IC50 [3] greater than 100 µM. The “DPPH radical scavenging activity” value ([3]; up to 100 µg/mL) was “minimal DPPH radical scavenging activity”.
In the case of Cc1c(C)c2c(c(C)c1O)CCC(C)(C(=O)O)O2 (centres unmarked) [Trolox, reference compound], the IC50 [3] is reported as 29.8 ± 1.59 µM.
